Measured values: PubChem BioAssay AID248 (DTP/NCI, 2004)
Values joined by “and” are separate entries in the source; they are usually repeats but may differ in a detail not shown here. Identical values can stand only once. Inconclusive results and toxic doses are left out. Cut-off read from the data, not from the text of the source: active = T/C of 150% or more; inactive = T/C below 125%. Square brackets hold non-standard residues; d marks the D form. Peptide text beside a SMILES is read from it. * marks the point of attachment. ξ: configuration not given here. Cbz = O=C(OCc1ccccc1)*; OBn = c1ccc(CO*)cc1; ξS = NC(CO)C(=O)O

Tested on: L1210 leukemia ip in BDF1 mice, survival T/C
Test: NCI In Vivo Anticancer Drug Screen. Data for tumor model L1210 Leukemia (intraperitoneal) in B6D2F1 (BDF1) mice
Conditions: endpoint: mean survival time, higher = longer survival
Summary of the method: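 Value reflects the ratio of survival in compound-treated mice to survival in vehicle-treated controls, with both groups carrying the same transplanted tumor.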

[1] = dose: 100.0 mg/kg/injection, schedule: Q04DX002 (ip), vehicle: saline
[2] = dose: 100.0 mg/kg/injection, schedule: Q01DX009 (ip), vehicle: saline with Tween-80
[3] = dose: 200.0 mg/kg/injection, schedule: Q01DX009 (ip), vehicle: saline with Tween-80
[4] = dose: 100.0 mg/kg/injection, schedule: Q04DX003 (ip), vehicle: saline with Tween-80
[5] = dose: 200.0 mg/kg/injection, schedule: Q04DX003 (ip), vehicle: saline with Tween-80
[6] = dose: 100.0 mg/kg/injection, schedule: Q01DX009 (ip), vehicle: saline
[7] = dose: 200.0 mg/kg/injection, schedule: Q01DX009 (ip), vehicle: saline
[8] = dose: 100.0 mg/kg/injection, schedule: Q04DX003 (ip), vehicle: other
[9] = dose: 200.0 mg/kg/injection, schedule: Q04DX003 (ip), vehicle: other
[10] = dose: 400.0 mg/kg/injection, schedule: Q04DX003 (ip), vehicle: other
[11] = dose: 100.0 mg/kg/injection, schedule: Q04DX002 (ip), vehicle: saline with Tween-80
[12] = dose: 200.0 mg/kg/injection, schedule: Q04DX002 (ip), vehicle: saline with Tween-80
[13] = dose: 400.0 mg/kg/injection, schedule: Q01DX009 (ip), vehicle: saline with Tween-80
[14] = dose: 400.0 mg/kg/injection, schedule: Q04DX002 (ip), vehicle: saline with Tween-80
[15] = dose: 100.0 mg/kg/injection, schedule: Q04DX003 (ip), vehicle: saline
[16] = dose: 200.0 mg/kg/injection, schedule: Q04DX003 (ip), vehicle: saline
[17] = dose: 400.0 mg/kg/injection, schedule: Q04DX003 (ip), vehicle: saline

Measured: T/C

CCNCCC[P+](c1ccccc1)(c1ccccc1)c1ccccc1
inactive: dose: 25.0 mg/kg/injection, schedule: Q04DX002 (ip), vehicle: saline 98 % of control | dose: 50.0 mg/kg/injection, schedule: Q04DX002 (ip), vehicle: saline 105 % of control | [1] 98 % of control and 91 % of control

Cc1cc(C)c(N(CC(=O)O)S(=O)(=O)c2ccccc2)c(C)c1F
inactive: dose: 100.0 mg/kg/injection, schedule: Q01DX001 (ip), vehicle: Klucel (hydroxypropylcellulose) (HPC) 100 % of control | dose: 200.0 mg/kg/injection, schedule: Q01DX001 (ip), vehicle: Klucel (hydroxypropylcellulose) (HPC) 94 % of control | dose: 400.0 mg/kg/injection, schedule: Q01DX001 (ip), vehicle: Klucel (hydroxypropylcellulose) (HPC) 89 % of control

O=C(CNC(=O)OCc1ccccc1)NC(CO)C(=O)OCc1ccccc1 (stereo not drawn) (Cbz-Gly-[ξS]-OBn)
inactive: dose: 100.0 mg/kg/injection, schedule: Q04DX003 (ip), vehicle: Klucel (hydroxypropylcellulose) (HPC) 101 % of control | dose: 200.0 mg/kg/injection, schedule: Q04DX003 (ip), vehicle: Klucel (hydroxypropylcellulose) (HPC) 101 % of control | dose: 400.0 mg/kg/injection, schedule: Q04DX003 (ip), vehicle: Klucel (hydroxypropylcellulose) (HPC) 105 % of control

CC(=O)Nc1ccc(NC(=O)C2C3C=CC(C3)C2C(=O)O)cc1 (stereo not given)
inactive: dose: 50.0 mg/kg/injection, schedule: Q01DX009 (ip), vehicle: saline with Tween-80 101 % of control | [2] 107 % of control | [3] 93 % of control

CSc1cccc[n+]1C
inactive: dose: 75.0 mg/kg/injection, schedule: Q01DX001 (ip), vehicle: saline 104 % of control

O=C1N/C(=N\OCc2ccccc2Cl)CC(NOCc2ccccc2Cl)N1 (stereo not given)
inactive: [4] 91 % of control | [5] 97 % of control | dose: 400.0 mg/kg/injection, schedule: Q04DX003 (ip), vehicle: saline with Tween-80 95 % of control

CCP(CC)c1ccccc1
inactive: dose: 100.0 mg/kg/injection, schedule: Q01DX009 (sc), vehicle: olive oil, sesame oil, peanut oil 100 % of control | dose: 100.0 mg/kg/injection, schedule: Q04DX003 (sc), vehicle: olive oil, sesame oil, peanut oil 98 % of control | dose: 200.0 mg/kg/injection, schedule: Q01DX009 (sc), vehicle: olive oil, sesame oil, peanut oil 102 % of control | dose: 200.0 mg/kg/injection, schedule: Q04DX003 (sc), vehicle: olive oil, sesame oil, peanut oil 96 % of control | dose: 400.0 mg/kg/injection, schedule: Q01DX009 (sc), vehicle: olive oil, sesame oil, peanut oil 107 % of control | dose: 400.0 mg/kg/injection, schedule: Q04DX003 (sc), vehicle: olive oil, sesame oil, peanut oil 98 % of control

O=[N+]([O-])c1ccc(OCCCBr)c(Cl)c1
inactive: [6] 103 % of control | [7] 108 % of control | dose: 400.0 mg/kg/injection, schedule: Q01DX009 (ip), vehicle: saline 120 % of control

Cc1cc(Cl)c(Cl)cc1NC(=O)c1ccccc1F
inactive: dose: 100.0 mg/kg/injection, schedule: Q01DX001 (ip), vehicle: other 94 % of control | dose: 100.0 mg/kg/injection, schedule: Q01DX009 (ip), vehicle: other 107 % of control and 92 % of control | dose: 100.0 mg/kg/injection, schedule: Q04DX002 (ip), vehicle: other 98 % of control and 102 % of control | [8] 98 % of control | dose: 200.0 mg/kg/injection, schedule: Q01DX001 (ip), vehicle: other 92 % of control | dose: 200.0 mg/kg/injection, schedule: Q01DX009 (ip), vehicle: other 90 % of control and 92 % of control | dose: 200.0 mg/kg/injection, schedule: Q04DX002 (ip), vehicle: other 105 % of control and 91 % of control | [9] 100 % of control | dose: 400.0 mg/kg/injection, schedule: Q01DX001 (ip), vehicle: other 91 % of control | dose: 400.0 mg/kg/injection, schedule: Q01DX009 (ip), vehicle: other 90 % of control and 92 % of control | dose: 400.0 mg/kg/injection, schedule: Q04DX002 (ip), vehicle: other 100 % of control and 102 % of control | [10] 96 % of control

ClC(Cl)(Cl)C(N1CCN(c2ccccc2)CC1)N1CCN(c2ccccc2)CC1
inactive: dose: 100.0 mg/kg/injection, schedule: Q01DX001 (ip), vehicle: carboxymethylcellulose (CMC) 101 % of control | dose: 200.0 mg/kg/injection, schedule: Q01DX001 (ip), vehicle: carboxymethylcellulose (CMC) 106 % of control | dose: 400.0 mg/kg/injection, schedule: Q01DX001 (ip), vehicle: carboxymethylcellulose (CMC) 89 % of control

O=C(NCCCCCCCCCCCCNC(=O)Nc1cccc(C2=NCC(O)CN2)c1)Nc1cccc(C2=NCC(O)CN2)c1 (stereo not given)
inactive: dose: 62.5 mg/kg/injection, schedule: Q01DX Z (ip), vehicle: carboxymethylcellulose (CMC) 105 % of control | dose: 125.0 mg/kg/injection, schedule: Q01DX Z (ip), vehicle: carboxymethylcellulose (CMC) 94 % of control

Cc1ccc(N=Nc2ccc(C)cc2NC(=O)Nc2cc(C)ccc2C)cc1
inactive: dose: 100.0 mg/kg/injection, schedule: Q01DX001 (ip), vehicle: saline with Tween-80 102 % of control | [2] 98 % of control | [11] 87 % of control and 89 % of control | dose: 200.0 mg/kg/injection, schedule: Q01DX001 (ip), vehicle: saline with Tween-80 109 % of control | [3] 106 % of control | [12] 91 % of control | dose: 400.0 mg/kg/injection, schedule: Q01DX001 (ip), vehicle: saline with Tween-80 90 % of control | [13] 102 % of control | [14] 95 % of control and 89 % of control

Cn1c2ccccc2c2nn3cnnc3nc21
inactive: [11] 108 % of control | [12] 120 % of control

C[n+]1ccccc1/C=C/c1cccc([N+](=O)[O-])c1
inactive: dose: 5.0 mg/kg/injection, schedule: Q04DX003 (ip), vehicle: saline with Tween-80 101 % of control | dose: 10.0 mg/kg/injection, schedule: Q04DX003 (ip), vehicle: saline with Tween-80 90 % of control | dose: 20.0 mg/kg/injection, schedule: Q04DX003 (ip), vehicle: saline with Tween-80 100 % of control

Nc1nc2c(ncn2-c2cccc(Cl)c2)c(=O)[nH]1
inactive: [4] 95 % of control | [5] 91 % of control

O=C(Nc1cc2ccccc2nc1-c1ccccc1)c1ccccc1
inactive: dose: 100.0 mg/kg/injection, schedule: Q01DX001 (ip), vehicle: saline 92 % of control

C#CCN(Cc1ccccc1)C(=O)Nc1cccc(Cl)c1
inactive: [8] 106 % of control | [9] 98 % of control | [10] 96 % of control

Cc1ccc(CCCC#N)[nH]1
inactive: dose: 100.0 mg/kg/injection, schedule: Q01DX001 (sc), vehicle: carboxymethylcellulose (CMC) 110 % of control | dose: 200.0 mg/kg/injection, schedule: Q01DX001 (sc), vehicle: carboxymethylcellulose (CMC) 113 % of control

COc1ccc(C(O)c2ccccc2C(=O)Nc2ccccc2)cc1 (stereo not given)
inactive: [2] 98 % of control | [3] 88 % of control | [13] 95 % of control

COc1cc(N)c2nccc(N(C)C)c2c1
inactive: [6] 99 % of control | [15] 97 % of control | [7] 107 % of control | [16] 103 % of control | [17] 101 % of control

O=C(CCCO)N/N=C\c1ccc([N+](=O)[O-])s1
inactive: [15] 95 % of control | [16] 93 % of control | [17] 101 % of control

CCCc1c(OCC)c(OC)c2c3c(c(-c4c(C)cc5c(CCC)c(OCC)c(OC)c6c5c4OC6NNc4ccccc4)c(C)cc13)OC2NNc1ccccc1 (stereo not given)
inactive: dose: 75.0 mg/kg/injection, schedule: Q01DX001 (ip), vehicle: Klucel (hydroxypropylcellulose) (HPC) 98 % of control | dose: 150.0 mg/kg/injection, schedule: Q01DX001 (ip), vehicle: Klucel (hydroxypropylcellulose) (HPC) 93 % of control | dose: 300.0 mg/kg/injection, schedule: Q01DX001 (ip), vehicle: Klucel (hydroxypropylcellulose) (HPC) 91 % of control | dose: 300.0 mg/kg/injection, schedule: Q04DX003 (ip), vehicle: Klucel (hydroxypropylcellulose) (HPC) 87 % of control

COc1ccc(/C=C(\C#N)c2ccc([N+](=O)[O-])cc2)cc1OC
inactive: [11] 90 % of control | [12] 90 % of control | [14] 90 % of control

C/C=C1\CCOC1=O
inactive: [1] 94 % of control | dose: 200.0 mg/kg/injection, schedule: Q04DX002 (ip), vehicle: saline 91 % of control | dose: 400.0 mg/kg/injection, schedule: Q04DX002 (ip), vehicle: saline 105 % of control
